pIC50: −log10 of the molar value. Values joined by “and” are separate entries in the source; they are usually repeats but may differ in a detail not shown here. Identical values can stand only once.
Assays:
[1] = tested on: Caco-2 human colon cancer cells; experiment: MTT cell viability assay, Caco-2; assay type: cell-based; conditions: for pIC50: MTT
Protocol: (§1) All cancer cells were cultured in RPMI 1640 medium with 10% FBS in a humidified incubator of 95% air and 5% CO2 at 37 °C. […] Then, […] of MTT solution (5 mg/ml) was added to every well and kept at 37 °C for 4 h in the dark. After removing the medium, 200 µl DMSO was added, and the solution was kept on a shaker for approximately 15 min until the formazan solved completely. The absorbance was evaluated at 490 nm with an ELISA reader. The IC50 was computed by GraphPad Prism 7.0 software. […] All of cell lines were treated for three different duration times (24, 48 and 72 h). […] Cell viability was assessed with MTT and is presented relative to untreated cells (set to 100%).

[2] = tested on: MCF-7 human breast cancer cells; experiment: MTT cell viability assay, MCF-7; assay type: cell-based
Protocol: as §1, with “h). The Caco-2 cells were very sensitive to Pt(TSC)Cl in comparison with the two others in all three different durations of treatment. We also used cisplatin, a commercially available platinum-based compound, as a reference.” for “h).”

A549 cells [3] = experiment: Cell cycle distribution by PI flow cytometry, A549; assay type: cell-based, Human; conditions: A549, IC50 concentration, 48 h
Protocol: (§2) Evaluation of cell cycle progression was performed by flow cytometry of propidium iodide and can identify the fraction of time spent by cells in various stages of the cell cycle. […] Cell cycle distribution was determined by flow cytometry by the protocol described previously. The control condition consisted of cells cultured in the absence of treatment but in the presence of PI. After harvesting the cells with trypsin, they were rinsed and fixed with 70% ethanol and kept for 3 days at 4 °C. Then, the samples were centrifuged, and after removal of supernatants […], the cells were dispersed in 300 µL of PBS. Next, after adding 10 µL of ribonuclease-A (10 mg/mL) and 45 min of incubation, 10 µL propidium iodide (1 mg/mL) was added to each of the samples and vortexed. After 10 min of incubation at room temperature and in the dark, the cells were examined by a FACSCalibur flow cytometer to estimate the cell cycle phases. FlowJo 7.6 software was used to analyze the cell cycle.

MCF-7 cells [4] = experiment: Cell cycle distribution by PI flow cytometry, MCF-7; assay type: cell-based, Human; conditions: MCF-7, IC50 concentration, 48 h
Protocol: as §2

MCF-7 cells [5] = experiment: Annexin V-FITC/PI apoptosis flow cytometry, MCF-7; assay type: cell-based, Human; conditions: MCF-7, IC50 concentration, 48 h
Protocol: (§3) After washing the cells with cold PBS, they were resuspended in 100 µl binding buffer containing Annexin V-FITC (5 μL) and PI (5 μL) solution. After incubation for 15 min at room temperature, cells were washed and suspended in 100 μL of 1 × binding buffer. Cells were investigated by a FACSCanto II ([…]) flow cytometry system. The percentage of apoptotic cells was calculated by summation of the cells in (annexin V+ , PI−) and (annexin V+ , PI+) and the percentage of necrotic cells achieved from (annexin V−, PI+). An Annexin-V/PI assay was performed via flow cytometry to measure the percentage of cells with early and late apoptotic changes.

[6] = tested on: A549 human lung cancer cells; experiment: MTT cell viability assay, A549; assay type: cell-based
Protocol: as §1, with “h). The Caco-2 cells were very sensitive to Pt(TSC)Cl in comparison with the two others in all three different durations of treatment. We also used cisplatin, a commercially available platinum-based compound, as a reference.” for “h).”

[7] = tested on: MCF-7, A549 and Caco-2 cell lines; experiment: Real time PCR of apoptosis pathway genes; assay type: cell-based, Human; conditions: IC50 values, 48 h, GAPDH reference gene
Protocol: Then, the cells were rinsed with cold PBS and harvested. Total RNA was isolated from MCF-Z, A549, and Caco-2 cell lines by the TRIzol method (TRIzol™ Reagent (Invitrogen, Catalog number: 15596026)). Briefly, the cells were centrifuged at 500 g at 4 °C, the plates were processed for cell lysate by 750 μl of RiboEx; then 200 μl chloroform was subjoined to the cell lysate and after incubating for 2 min at room temperature, they were centrifuged at 12,000 g for 20 min (4 °C). Following collection of aqueous phases, one volume of isopropyl alcohol was dispensed for precipitation of total RNA at 12,000 g for 20 min (4 °C). The RNA plate was rinsed with 75% ethanol and dissolved in deep water. Complementary DNA (cDNA) synthesis was performed by Revert Aid Reverse Transcriptase (Cat numb: EP0441, Thermo Scientific, Lithuania) according to the manufacturer’s instructions. For evaluation of the apoptosis pathway genes, real time PCR was carried out based on the following PCR program[28]: initial denaturation at 95 °C for 15 min, 45 cycles of denaturation at 95 °C for 15 sec, and annealing/extension at 60 °C for 50 sec. The real time PCR mixture contained 5 μL 2x SYBR Green Master Mix (RealQ Plus 2x Master Mix Green, Ampliqon, Denmark), 2 μL cDNA, 0.5 μL of 5 pmol/μL primer pair mix (Eurofin, Germany), and 3 μL H2O. […]

A549 cells [8] = experiment: Annexin V-FITC/PI apoptosis flow cytometry, A549; assay type: cell-based, Human; conditions: A549, IC50 concentration, 48 h
Protocol: as §3

Caco-2 cells [9] = experiment: Western blot of apoptotic proteins; assay type: cell-based, Human; conditions: Caco-2, IC50 value, 48 h
Protocol: Assessment of apoptotic protein level alterations by western blot analysis by the protocol described previously. The control included cells without treatment. To provide the cell lysate, cells were collected and treated with the following materials: RIPA buffer [500 µL of Tris–HCl (pH = 8), one tablet of protease inhibitor cocktail, 0.003 g EDTA, 0.08 g NaCl, 0.025 g sodium deoxycholate, 0.01 g SDS and 10 µl of Triton NP40 (1%)] used at 4 °C. After that, the cells were centrifuged at 12,000 rpm for 10 min at 4 °C. To measure total protein, the supernatant of cells was determined by the Bradford assay (Bio–Rad protein assay, Bio–Rad Laboratories, USA) using a spectrophotometer (Bibby Scientific Ltd, Beacon Rd, UK). The portions of target protein received from the sodium dodecyl sulfate–polyacrylamide gel electrophoresis (SDS–PAGE) were carried over the polyvinylidene difluoride (PVDF) membrane and were blocked with TBST buffer containing 5% (w/v) skim milk (0.1% v/v Tween®20-tris buffered saline: TBST). The blocked PVDF membranes that contained the target proteins were incubated with specific primary antibodies: Bax (B-9) mouse monoclonal antibody (Santa Cruz) (1:1000), Bcl-2 sc-492 (Santa Cruz) rabbit monoclonal antibody (1:1000), caspase-7 (C7) (Cell Signaling) rabbit polyclonal antibody (1:1000), Caspase-3 Cell Signaling rabbit monoclonal antibody (1:1000), caspase-9 (Cell Signaling) rabbit polyclonal antibody (1:1000), GAPDH (Santa Cruz) mouse monoclonal antibody (1:1000) and P27 (Elabscience) rabbit polyclonal antibody (1:400) that were diluted with blocking buffer) overnight at 4 °C. The membrane was washed with TBST and incubated with secondary antibodies (m-IgGκ BP-HRP (Santa Cruz) for Bax (B-9), Bcl-2 and GAPDH, and mouse anti-rabbit IG-HRP (Santa Cruz) was used for Caspase-3, 7, 9 and P27, which were diluted using blocking buffer (1:1000).) for 1 h at room temperature. The target protein bands were visualized by an enhanced chemiluminescence detection kit (Thermo Fisher Scientific, Breda, the Netherlands) and Amersham® Imager 600 system (GE Healthcare Life Sciences, Eindhoven, Netherlands). Finally, the western blotting results were normalized to the expression of GAPDH as the loading control. All the protein bands were quantified by ImageJ software (v. 1.52n).

Caco-2 cells [10] = experiment: Cell cycle distribution by PI flow cytometry, Caco-2; assay type: cell-based, Human; conditions: Caco-2, IC50 concentration, 48 h
Protocol: as §2

[11] = tested on: Hek293 human embryonic kidney cells; experiment: MTT cell viability assay, Hek293 (nephrotoxicity); assay type: cell-based; conditions: Hek293 normal kidney cells, 24 h
Protocol: All cancer cells were cultured in RPMI 1640 medium with 10% FBS in a humidified incubator of 95% air and 5% CO2 at 37 °C. […] Then, […] of MTT solution (5 mg/ml) was added to every well and kept at 37 °C for 4 h in the dark. After removing the medium, 200 µl DMSO was added, and the solution was kept on a shaker for approximately 15 min until the formazan solved completely. The absorbance was evaluated at 490 nm with an ELISA reader. The IC50 was computed by GraphPad Prism 7.0 software. […] Cell viability was assessed with MTT and is presented relative to untreated cells (set to 100%).

Caco-2 cells [12] = experiment: Annexin V-FITC/PI apoptosis flow cytometry, Caco-2; assay type: cell-based, Human; conditions: Caco-2, IC50 concentration, 48 h
Protocol: as §3

[Cl][Pt-2]12[S]C(Nc3ccccc3)=N[N+]1=Cc1cccc[n+]12 (stereo not drawn) [Pt(TSC)Cl complex, [Pt(TSC)Cl]]
pIC50 ([1]; Caco-2, 24 h): 4.76
fold more toxicity than cisplatin ([1]; Caco-2, 48 h): 46 fold
pIC50 ([1]; Caco-2, 48 h): 5.64
pIC50 ([1]; Caco-2, 72 h): 5.76
pIC50 ([2]; MCF-7, 24 h): 3.70
pIC50 ([2]; MCF-7, 48 h): 3.71
pIC50 ([2]; MCF-7, 72 h): 3.74
G0/G1, percentage of cells (A549 cells [3]): 47.71%
G2/M, percentage of cells (A549 cells [3]): 15.66%
S, percentage of cells (A549 cells [3]): 13.94%
SubG1, percentage of cells (A549 cells [3]): 22% and 21.78%
G0/G1, percentage of cells (MCF-7 cells [4]): 53.17%
G2/M, percentage of cells (MCF-7 cells [4]): 14.70%
S, percentage of cells (MCF-7 cells [4]): 28% and 27.72%
SubG1, percentage of cells (MCF-7 cells [4]): 4.95%
Early apoptosis (PI-/FITC+) cells (Q3) (MCF-7 cells [5]): 6.47%
Late apoptosis (PI+/FITC+) cells (Q2) (MCF-7 cells [5]): 23.8%
Necrosis (PI+/FITC-) cells (Q1) (MCF-7 cells [5]): 2.38%
Viable (PI-/FITC-) cells (Q4) (MCF-7 cells [5]): 67.3%
pIC50 ([6]; A549, 24 h): 3.83
pIC50 ([6]; A549, 48 h): 3.99
pIC50 ([6]; A549, 72 h): 4.16
expression of apoptotic pathway genes Bax and Caspases 9, 3 and 7 vs control [7]: upregulated
Early apoptosis (PI-/FITC+) cells (Q3) (A549 cells [8]): 3.74%
Late apoptosis (PI+/FITC+) cells (Q2) (A549 cells [8]): 7.12%
Necrosis (PI+/FITC-) cells (Q1) (A549 cells [8]): 3.9%
Viable (PI-/FITC-) cells (Q4) (A549 cells [8]): 85.2%
percentage of apoptotic cells (early + late) (A549 cells [8]): 10.86%
Bcl2 protein levels (Caco-2 cells [9]): downregulation
Bax protein level, fold vs control group (Caco-2 cells [9]; normalized to GAPDH): 1.9 fold
caspase 3 protein level, fold vs control group (Caco-2 cells [9]; normalized to GAPDH): 1.97 fold
caspase 7 protein level, fold vs control group (Caco-2 cells [9]; normalized to GAPDH): 1.92 fold
caspase 9 protein level, fold vs control group (Caco-2 cells [9]; normalized to GAPDH): 3.2 fold
p27 protein, fold increase vs control group (Caco-2 cells [9]; normalized to GAPDH): 2.14 fold
G0/G1, percentage of cells (Caco-2 cells [10]): 30.34%
G2/M, percentage of cells (Caco-2 cells [10]): 5.08%
S, percentage of cells (Caco-2 cells [10]): 14.91%
SubG1, percentage of cells (Caco-2 cells [10]): ~51%
pIC50 [11]: 4.19
Late apoptosis (PI+/FITC+) cells (Q2) (Caco-2 cells [12]): 52.4%
Necrosis (PI+/FITC-) cells (Q1) (Caco-2 cells [12]): 4.79%
Viable (PI-/FITC-) cells (Q4) (Caco-2 cells [12]): 5.58%

N.N.[Cl][Pt][Cl] [cisplatin, reference compound]
pIC50 ([2]; MCF-7, 24 h): 3.79
pIC50 ([2]; MCF-7, 48 h): 3.85
pIC50 ([2]; MCF-7, 72 h): 3.82
SubG1, percentage of cells (A549 cells [3]): 0.42%
G0/G1, percentage of cells (A549 cells [3]; listed as Cis): 66.94%
G2/M, percentage of cells (A549 cells [3]; listed as Cis): 16.08%
S, percentage of cells (A549 cells [3]; listed as Cis): 16.13%
G2/M, percentage of cells (MCF-7 cells [4]): 15.88%
S, percentage of cells (MCF-7 cells [4]): 37.2%
G0/G1, percentage of cells (MCF-7 cells [4]; listed as Cis): 37.21%
S, percentage of cells (MCF-7 cells [4]; listed as Cis): 37.43%
SubG1, percentage of cells (MCF-7 cells [4]; listed as Cis): 6.8%
Early apoptosis (PI-/FITC+) cells (Q3) (MCF-7 cells [5]): 8.48%
Late apoptosis (PI+/FITC+) cells (Q2) (MCF-7 cells [5]): 10.4%
Necrosis (PI+/FITC-) cells (Q1) (MCF-7 cells [5]): 3.24%
percentage of apoptotic cells (early + late) (MCF-7 cells [5]): 18.88%
pIC50 ([6]; A549, 24 h): 4.01
pIC50 ([6]; A549, 48 h): 4.37
pIC50 ([6]; A549, 72 h): 4.88
Early apoptosis (PI-/FITC+) cells (Q3) (A549 cells [8]): 7.50%
Late apoptosis (PI+/FITC+) cells (Q2) (A549 cells [8]): 7.83%
Necrosis (PI+/FITC-) cells (Q1) (A549 cells [8]): 1.73%
percentage of apoptotic cells (early + late) (A549 cells [8]): 15.33%
pIC50 [11]: 5.38
